Molecules are shown by their SMILES. In brackets after ≈: the same amount, converted by molar mass. Where only a bound is given, the exact number is not on record here.

The values that follow come from ChEMBL document CHEMBL5247589, “Natural occurrence, bioactivity, and biosynthesis of triene-ansamycins” (Eur J Med Chem, 2022).

For data set [1], the system named is HL-60. Briefly: Induction of apoptosis in human HL-60 cells assessed as effective dose. The format is functional. Particulars: read-out: ED50 (the source's name).
A further data set relates to Pyricularia oryzae. Nature of the data set: Antimicrobial activity against Pyricularia oryzae by agar dilution method. Format: functional.
Data set [2] has as its system HL-60. Briefly: Antitumor activity against human HL60 cells assessed as cell growth incubated for 1 day by MTT assay. Format: functional, cell-based. Particulars: HL-60, 24 h. For orientation: Formazan colour is commonly taken as a measure of viable cells.
A short description of data set [3]: Cytotoxicity against human WI-38 cells assessed as cell growth incubated for 1 day by MTT assay. The format is toxicity, cell-based.
The subject of the next data set is BV-2. Nature of the data set: Cytotoxicity against LPS stimulated mouse BV-2 cells by MTS assay. The format is functional, cell-based.
For a further data set, the system named is HeLa. Briefly: Antitumor activity against human HeLa cells incubated for 72 hrs by hemocytometer. The format is functional, cell-based.
Data set [4] in a line: Cytotoxicity against mouse C2C12 cells. The format is toxicity, cell-based.
Data set [5] in a line: Inhibition of NO production in LPS stimulated mouse BV-2 cells measured after 24 hrs. Particulars: BV-2, 24 h. The format is functional, cell-based.
The nature of data set [6]: Cytotoxicity against mouse C2C12 cells incubated for 48 to 72 hrs by MTS assay. Format: toxicity, cell-based.
Data set [7] can be described thus: Cytotoxicity against human HAF cells incubated for 48 to 72 hrs by MTS assay. The format is toxicity, cell-based, Fibroblast. To be noted: HAF cells (fibroblasts).
A short description of data set [8]: Cytotoxicity against human HAF cells. The format is toxicity, cell-based, Fibroblast. Particulars: HAF cells (fibroblasts).
Data set [9] can be described thus: Cytotoxicity against human HaCaT cells incubated for 48 to 72 hrs by MTS assay. Format: toxicity, cell-based.
Data set [10] can be described thus: Cytotoxicity against human HaCaT cells. The format is toxicity, cell-based.
Another data set concerns PLC. Nature of the data set: Antitumor activity against human PLC cells incubated for 72 hrs by hemocytometer. Format: functional, cell-based.
Another data set deals with PANC-1. Nature of the data set: Antitumor activity against human PANC-1. The format is functional, cell-based. To be noted: pooled result: one value given for 3 cell lines, strains, targets or settings.

As usually defined, the MIC is the smallest concentration in the dilution series that meets the test's criterion for growth inhibition. A lower MIC goes with greater potency. Usually IC50 stands for the point on the concentration scale where inhibition reaches its midpoint. `CO[C@H]1/C=C/C=C/C=C/C[C@H](OC(=O)C2(NC(=O)C3=CCCCC3)CC2)[C@H](C)[C@@H](O)/C(C)=C\CCc2cc(O)cc(c2O)NC(=O)C1`: in the data set on HL-60 [1], the EC50 was 7.7 µM. Also, the MIC against Pyricularia oryzae was 12.5 µg/mL (≈ 19.3 µM). For the same compound, the 50% inhibitory concentration (IC50) in the data set with HL-60 [2] came to 7.7 nM. In data set [3], the IC50 at 1 day was determined as 7.7 nM.
With `CO[C@H]1/C=C/C=C/C=C/C[C@H](OC(=O)[C@@H](C)NC(=O)C2CCCCC2)[C@H](C)[C@@H](O)/C(C)=C\CCc2cc(O)cc(c2)NC(=O)C1` [TRIENOMYCIN A], the IC50 in the data set on BV-2 was 8 nM; with HeLa, 8 nM; in data set [4], 8 nM; in [6], greater than 10 µM; in [7], greater than 10 µM; in data set [8], 8 nM. The IC50 in [9] is greater than 10 µM; in data set [10] it was 8 nM; in the data set on PLC it was 8 nM; in the data set on PANC-1 it was 8 nM. In addition, the EC50 in [5] is 25.4 nM.
